Data as given in patent US20150322082A1, “NOVEL COMPOUNDS AS DIACYLGLYCEROL ACYLTRANSFERASE INHIBITORS” (GLAXOSMITHKLINE LLC, priority 2012, published 2015).
Where two headings read alike, the source gives them in different places.

Columns and labels:
Human DGAT1 = biological target: T1, Human DGAT1 (Homo sapiens, UniProt O75907); assay: Human DGAT1 lipid extraction (LE) assay, inhibition of triacylglycerol product formation; type: biochemical; conditions: human DGAT1 microsomes from Sf9 cells, read-out: hDGAT LE IC50
T1 construct: made in house; host or cells: Sf9 insect cells (baculovirus); microsomes
T1 sequence (O75907 1-488): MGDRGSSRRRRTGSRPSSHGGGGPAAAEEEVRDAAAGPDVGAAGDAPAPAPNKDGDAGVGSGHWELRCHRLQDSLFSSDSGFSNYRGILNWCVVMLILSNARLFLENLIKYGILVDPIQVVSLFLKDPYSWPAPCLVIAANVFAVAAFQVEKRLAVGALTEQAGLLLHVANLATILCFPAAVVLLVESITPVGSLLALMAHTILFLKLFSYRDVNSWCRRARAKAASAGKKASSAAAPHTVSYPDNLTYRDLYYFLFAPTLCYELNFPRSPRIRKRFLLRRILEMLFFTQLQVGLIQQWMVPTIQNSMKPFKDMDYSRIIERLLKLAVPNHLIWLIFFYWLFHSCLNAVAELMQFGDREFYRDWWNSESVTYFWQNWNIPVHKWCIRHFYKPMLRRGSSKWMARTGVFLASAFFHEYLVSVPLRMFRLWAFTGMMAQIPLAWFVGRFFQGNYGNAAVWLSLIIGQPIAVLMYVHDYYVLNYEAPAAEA
Experimental: Human DGAT1 was expressed in Sf9 insect cells using a baculovirus expression system. Microsomes were prepared and used as enzyme for in vitro inhibition testing in either of two formats measuring production of coenzyme A or tridecanoylglycerol product, respectively. All steps were performed at 21-23° C. All data for DGAT1 inhibition by test compounds were collected under conditions where product formation was linear with reaction time.
Some assays were performed with inclusion of didecanoylglycerol in the pre-reaction incubation of test compounds and enzyme. […] Extraction of tridecanoylglycerol product was accomplished via addition of 30 uL Microscint-E (Perkin Elmer) and 2 hours of incubation (sealed). Plates were read on a Microbeta Microplate reader. Inhibition was normalized to controls containing DMSO or 10 uM {4-[4-(4-amino-7,7-dimethyl-7H-pyrimido[4,5-b][1,4]oxazin-6-yl)phenyl]cyclohexyl}acetic acid. IC50s were fitted using GraphPad Prism to a sigmoidal dose response.

[1] = Pharmacokinetic assay in rats (Rat IV and PO PK); type: in vivo; conditions: male, Crl:CD (SD), plasma; for bioavailability: 2 mg/kg, absolute oral bioavailability from oral and intravenous AUC0-inf, normalized for dose, read-out: Rat % F
Experimental: Pharmacokinetic Assay in Rats (Rat IV and PO PK)
Male Crl:CD (SD) rats were housed individually in cages with clean bedding in a controlled environment (22 to 25° C. temperature, humidity of 30-70% RH, and a 12 hour light/12 hour dark cycle). Certified rodent diet was provided ad libitum to the rats. Rats were fasted overnight 14-16 hours prior to the dosing on each study day and fed approximately 4 hours post dose (following collection of the 4 hour blood sample). Water was available ad libitum. Normal healthy rats certified by the attending veterinarian were selected and acclimatized for a minimum of three days prior to initiation of the study. Rats were randomized according to the body weight and were identified with body markings.
Intravenous formulation of 1 mg/mL concentration was prepared in DMA (N,N-Dimethylacetamide):TEG (Tetraethylene glycol): Water for Injection (20:40:40) freshly on study day. Animals were dosed through tail vein to achieve a target dose of 1 mg/kg. Oral suspension at a target concentration of 2 mg/mL was prepared freshly in Tween 80 (2%) and 0.5% MC (Methylcellulose) (2:98) on the study day. Animals in the intravenous dosing group were dosed through tail vein to achieve a target dose of 1 mg/kg, and the animals in oral dosing group were dosed orally by an oral gavage needle to achieve a target dose of 2 mg/kg. The actual dose volume was based on the body weight obtained on the study day. On the study day, blood samples (approx. 300 μL/time point) were collected at 0.083, 0.25, 0.5, 1, 2, 4, 8 and 24 hours after intravenous bolus dose, and 0.25, 0.5, 1, 2, 4, 8 and 24 hours after dosing of oral gavage and transferred to a pre-labeled K2EDTA coated tubes. Blood volume was replaced with administration of equal volume of saline through the jugular vein. After collection of blood samples at each time point, the blood samples were stored immediately on ice, in chilled Cryoracks and centrifuged at 2320 g at 4° C. for 15 minutes. The plasma was separated and transferred to pre-labeled micro-centrifuge tubes and promptly frozen at −80+10° C. until bioanalysis.
The plasma concentrations were determined by using a fit for purpose analytical method based on protein precipitation, followed by LC-MS/MS analysis. Analyst Version 1.5.1 software was used to acquire and quantify data. Pharmacokinetic analysis of plasma concentration-time data was performed by a non-compartmental method using Pheonix WinNonLin™ (WLN) Version 6.3.
The area under the plasma concentration-time curve (AUC) from the time of dosing to the last quantifiable time point (AUC0-1) was determined by WLN using linear logarithmic trapezoidal rule. Terminal half life (T1/2) was determined by WLN using linear logarithmic trapezoidal rule for plasma concentrations following intravenous administration. The Absolute oral bioavailability (% F) was calculated by mathematical comparison of oral and intravenous AUC0-inf, normalized for dose.

[2] = intravenous (tail vein), target dose 1 mg/kg, read-out: Rat IV AUC
[3] = oral gavage, target dose 2 mg/kg, read-out: Rat PO AUC

| SMILES | IC50 (Human DGAT1) [nM] | AUC [1, 2] [ng·h/mL] | AUC [1, 3] [ng·h/mL] | bioavailability [1] [%] |
| --- | --- | --- | --- | --- |
| CC(C)(O)Cn1ccc2cc(N3CCOc4ncnc(N)c4C3=O)cc(C3CC3)c21 [Example 40, 4-amino-6-(7-cyclopropyl-1-(2-hydroxy-2-methylpropyl)-1H-indol-5-yl)-7,8-dihydropyrimido[5,4-f][1,4]oxazepin-5(6H)-one] | 7.5 | – | – | – |
| Nc1ncnc2c1C(=O)N(c1ccc3c(ccn3-c3ccc(C(F)(F)F)cn3)c1)CCO2 [WO12/162129, Ex 88, 4-amino-6-(1-(5-(trifluoromethyl)pyridin-2-yl)-1H-indol-5-yl)-7,8-dihydropyrimido[5,4-f][1,4]oxazepin-5(6H)-one] | – | 3780 | 1780 | 12.5 |
| Cc1cnc(-n2ccc3cc(N4CCOc5ncnc(N)c5C4=O)cc(C4CC4)c32)nc1 [Example 37, 4-Amino-6-(7-cyclopropyl-1-(5-methylpyrimidin-2-yl)-1H-indol-5-yl)-7,8-dihydropyrimido[5,4-f][1,4]oxazepin-5(6H)-one] | 11.7 | 11700 | 11600 | 54.6 |
| CCOc1ncc(-n2ccc3cc(N4CCOc5ncnc(N)c5C4=O)ccc32)cn1 [Example 41] | 23.8 | – | – | – |
| COC(C)(C)Cn1ccc2cc(N3CCOc4ncnc(N)c4C3=O)ccc21 [Example 39, 4-amino-6-(1-(2-methoxy-2-methylpropyl)-1H-indol-5-yl)-7,8-dihydropyrimido[5,4-f][1,4]oxazepin-5(6H)-one] | 42.3 | – | – | – |

The next lines start with the values.

| IC50 (Human DGAT1) [nM] | AUC [1, 2] [ng·h/mL] | AUC [1, 3] [ng·h/mL] | bioavailability [1] [%] | SMILES |
| --- | --- | --- | --- | --- |
| – | 975 | 2490 | 65.6 | Cc1ccc(-n2ccc3cc(N4CCOc5ncnc(N)c5C4=O)ccc32)cn1 [WO12/162129, Ex 102, 4-amino-6-(1-(6-methylpyridin-3-yl)-1H-indol-5-yl)-7,8-dihydropyrimido[5,4-f][1,4]oxazepin-5(6H)-one] |
| 29 | 2140 | 4020 | 89 | CC(C)(O)c1ccc(-n2ccc3cc(N4CCOc5ncnc(N)c5C4=O)ccc32)cn1 [Example 38, 4-Amino-6-(1-(6-(2-hydroxypropan-2-yl)pyridin-3-yl)-1H-indol-5-yl)-7,8-dihydropyrimido[5,4-f][1,4]oxazepin-5(6H)-one] |
| – | 3380 | 3860 | 30.4 | Nc1ncnc2c1C(=O)N(c1ccc3c(ccn3-c3ccc(C(F)(F)F)nc3)c1)CCO2 [WO12/162129, Ex 83, 4-amino-6-(1-(6-(trifluoromethyl)pyridin-3-yl)-1H-indol-5-yl)-7,8-dihydropyrimido[5,4-f][1,4]oxazepin-5(6H)-one] |
